Key:
σ2 receptors = target: T1, σ2 receptors (Rattus norvegicus, UniProt Q5U3Y7); assay: σ2 receptor binding assay, [^3H]DTG in the presence of (+)-pentazocine, rat liver membrane homogenates; conditions: for σ1:σ2 Ratio: ratio of Ki values
T1 construct: conducted using rat liver membrane homogenates; from tissue; host or cells: rat liver membrane homogenates
T1 sequence (Q5U3Y7 1-176): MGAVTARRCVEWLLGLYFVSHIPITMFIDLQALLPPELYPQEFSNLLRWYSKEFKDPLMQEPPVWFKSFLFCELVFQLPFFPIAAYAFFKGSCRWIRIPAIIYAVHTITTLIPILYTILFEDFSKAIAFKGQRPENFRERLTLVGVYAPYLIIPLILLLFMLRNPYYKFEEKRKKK
Procedure: The incubation time was 120 min at room temperature. […] All other procedures were identical to those described for the σ1 receptor binding assay above.

σ1 receptors = σ1 receptors (Cavia porcellus, UniProt Q60492)
σ1 receptors, sequence (Q60492 whole entry): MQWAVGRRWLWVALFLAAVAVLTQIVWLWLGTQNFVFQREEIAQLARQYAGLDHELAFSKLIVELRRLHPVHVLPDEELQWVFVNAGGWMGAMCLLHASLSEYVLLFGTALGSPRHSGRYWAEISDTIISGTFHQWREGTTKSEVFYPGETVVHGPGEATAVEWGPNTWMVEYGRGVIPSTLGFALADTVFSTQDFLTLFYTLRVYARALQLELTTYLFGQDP
Procedure: In these assays, the novel sigma ligands were dissolved in N,N-dimethylformamide (DMF), DMSO or ethanol, and then diluted in 50 mM Tris-HCl buffer containing 150 mM NaCl and 100 mM EDTA at pH 7.4 prior to performing the σ1 and σ2 receptor binding assays. […] The samples were harvested and filtered rapidly through a 96-well fiber glass filter plate (millipore, Billerica, Mass.) that had been presoaked with 100 μL of 50 mM Tris-HCl buffer at pH 8.0 for 1 h.
The Ki values were determine from Scatchard plots.

## COc1cc2c(cc1OC)CN(CCNC(=O)c1cc(C)ccc1OCCF)CC2 [compound 3a, [N-(6,7-dimethoxy-3,4-dihydro-1H-isoquinolin-2-yl)-ethyl]-2-(2-fluoro-ethoxy)-5-methyl benzamide]
σ2 receptors
  Ki: 102 ± 4 nM
  σ1:σ2 Ratio: 222
σ1 receptors
  Ki: 22800 nM

## COc1cc2c(cc1OC)CN(CCCCNC(=O)c1cc(Br)ccc1OCCF)CC2 [compound 3d, N-[4-(6,7-dimethoxy-3,4-dihydro-1H-isoquinolin-2-yl)-butyl]-2-(2-fluoro-ethoxy)-5-bromo-benzamide]
σ2 receptors
  Ki: 0.65 ± 0.22 nM
  σ1:σ2 Ratio: 1,656
σ1 receptors
  Ki: 1080 nM

## COc1cc2c(cc1OC)CN(CCCCNC(=O)c1cc(I)ccc1OCCF)CC2 [compound 3e, N-[4-(6,7-dimethoxy-3,4-dihydro-1H-isoquinolin-2-yl)-butyl]-2-(2-fluoro-ethoxy)-5-iodo-benzamide]
σ1 receptors
  Ki: 1300 nM

## COc1cc2c(cc1OC)CN(CCCCNC(=O)c1cc(I)cc(OC)c1OCCF)CC2 [compound 3f]
σ2 receptors
  Ki: 0.26 ± 0.07 nM
  σ1:σ2 Ratio: 8,190
σ1 receptors
  Ki: 2150 nM

— US7659400B2, “Radiolabelled benzamide analogues, their synthesis and use in diagnostic imaging” (Washington University, priority 2003, dated 2010)
